Paper PMC6287599, “2,6-Bis(2-Benzimidazolyl)Pyridine (BBP) Is a Potent and Selective Inhibitor of Small Conductance Calcium-Activated Potassium (SK) Channels” (Frontiers in Pharmacology, 2018)

Columns and labels:
all SK channel subtypes = assay: Manual patch clamp, summary over all SK channel subtypes; format: cell-based, human; conditions: BBP 1 μM
Method: (§1) HEK293 cells were transiently co-transfected with the plasmid of interest (hBK, hSK1, hSK2, hSK3 WT, rSK3 H491N, or hIK) and eGFP using standard Lipofectamine™ 2000 (Thermo Fisher Scientific, Waltham, Massachussets, USA) transfection protocols. After transfection, cells were incubated overnight before the experiments.
(§2) Manual patch clamp experiments were performed at room temperature in the whole cell configuration with a HEKA EPC9 amplifier and the Patchmaster software (HEKA Elektronik, Ludwigshafen, Germany). All currents were elicited every 2 s using an incremental 200 ms voltage-ramp protocol starting at −80 mV and finishing at +80 mV from a holding potential of 0 mV. […] Currents were measured using the same solutions as the ones used for automated patch clamp, with symmetrical potassium concentrations and a free intracellular calcium concentration of 400 nM. […]
(§3) To assess the effect of BBP on other calcium-activated potassium channels (hBK, hSK3 WT, rSK3 H491N, and hIK), each individual current was first normalized to its cell size using membrane's capacitance (pA/pF) before statistical analysis. […] Statistical significance between saline and the effect of both BBP and the corresponding reference compound was determined for each channel using one-way ANOVA analysis. […]

hSK2 = hSK2 (Homo sapiens, UniProt Q9H2S1); assay: Manual whole cell patch clamp, HEK293 transiently transfected with hSK2; format: cell-based; conditions: BBP 1 μM, compared to positive control bicuculline methiodide 100 μM, n = 5, read-out: Inhibition of hSK2 current
Method: as §1, §2, §3

hBK = biological target: T1, hBK (Homo sapiens, UniProt Q12791); assay: Manual whole cell patch clamp, HEK293 transiently transfected with hBK; format: cell-based; conditions: BBP 1 μM, manual patch clamp, 100 nM free intracellular calcium, n = 8
T1 construct: expressed in transfected cells; host or cells: HEK293 (transient, co-transfected with eGFP)
Method: as §1
Manual patch clamp experiments were performed at room temperature in the whole cell configuration with a HEKA EPC9 amplifier and the Patchmaster software (HEKA Elektronik, Ludwigshafen, Germany). All currents were elicited every 2 s using an incremental 200 ms voltage-ramp protocol starting at −80 mV and finishing at +80 mV from a holding potential of 0 mV. […]
as §3
After testing BBP on the three SK channel subtypes, we decided to explore whether other calcium-activated potassium channels were affected by the compound. […] Finally, a positive control was used to inhibit the remaining current and quantify the total effect of BBP. […]

T1 sequence (Q12791 whole entry): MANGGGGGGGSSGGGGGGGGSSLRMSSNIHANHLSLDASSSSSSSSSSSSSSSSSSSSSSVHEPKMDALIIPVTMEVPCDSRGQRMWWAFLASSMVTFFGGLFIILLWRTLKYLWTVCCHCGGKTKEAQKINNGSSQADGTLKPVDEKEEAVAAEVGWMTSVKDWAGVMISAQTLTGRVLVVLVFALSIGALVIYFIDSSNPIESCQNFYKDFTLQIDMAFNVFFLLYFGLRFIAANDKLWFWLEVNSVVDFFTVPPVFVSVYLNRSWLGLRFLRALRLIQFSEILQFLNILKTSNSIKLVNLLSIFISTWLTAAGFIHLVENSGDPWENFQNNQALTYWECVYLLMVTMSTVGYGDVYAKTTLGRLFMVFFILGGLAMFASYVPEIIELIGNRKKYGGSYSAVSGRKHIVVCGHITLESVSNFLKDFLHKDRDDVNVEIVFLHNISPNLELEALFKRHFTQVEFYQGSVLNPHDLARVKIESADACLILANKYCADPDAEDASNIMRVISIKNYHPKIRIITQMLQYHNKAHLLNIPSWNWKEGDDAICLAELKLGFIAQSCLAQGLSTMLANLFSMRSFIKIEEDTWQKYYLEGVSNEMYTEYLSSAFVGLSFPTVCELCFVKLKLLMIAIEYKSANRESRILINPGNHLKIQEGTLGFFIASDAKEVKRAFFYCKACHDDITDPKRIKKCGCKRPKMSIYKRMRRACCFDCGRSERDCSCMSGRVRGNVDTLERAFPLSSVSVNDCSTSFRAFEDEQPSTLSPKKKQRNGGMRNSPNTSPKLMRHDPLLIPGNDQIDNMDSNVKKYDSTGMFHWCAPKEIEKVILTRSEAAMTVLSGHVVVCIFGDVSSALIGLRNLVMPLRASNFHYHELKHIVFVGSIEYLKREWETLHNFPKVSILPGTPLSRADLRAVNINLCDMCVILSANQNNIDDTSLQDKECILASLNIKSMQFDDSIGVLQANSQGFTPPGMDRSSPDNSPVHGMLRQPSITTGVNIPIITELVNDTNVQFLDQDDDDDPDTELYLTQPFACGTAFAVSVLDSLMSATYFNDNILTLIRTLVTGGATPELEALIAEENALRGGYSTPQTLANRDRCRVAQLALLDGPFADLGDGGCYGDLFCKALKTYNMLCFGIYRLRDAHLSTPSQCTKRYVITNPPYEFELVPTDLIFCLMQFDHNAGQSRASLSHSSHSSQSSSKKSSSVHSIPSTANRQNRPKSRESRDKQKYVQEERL

inhibition at 1 µM (hSK2): 94.8 ± 2.1%
Reduction of hBK current (hBK): 19 ± 6%
SMILES: c1cc(-c2nc3ccccc3[nH]2)nc(-c2nc3ccccc3[nH]2)c1 [BBP, 2,6-Bis(2-benzimidazolyl)pyridine]
Effect on all SK currents (in words) (all SK channel subtypes): totally inhibited
Voltage dependence of inhibition (−80 vs +80 mV) (all SK channel subtypes): no significant differences
